Like-named read-outs stand apart in the source and are kept apart here.
System: HBV
Test: HBV-DNA Antiviral Assay Using HepG2.117 Cells (intracellular HBV DNA by qPCR)
Format: cell-based, hepatitis B virus (genotype D)
How it was run: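 HepG2.117 cells (genotype D HBV, Tet-off) were induced by doxycycline withdrawal and treated for 3 days with 9 concentrations in 4-fold dilution, 2% DMSO final. Intracellular HBV DNA was measured by qPCR against a standard curve, with ATPlite viability read in parallel. EC50, EC90 and CC50 came from fits against the DMSO control.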

Row | SMILES | EC50 (Hepatitis B virus, HepG2.117) | EC50 (HBV DNA inhibition, HepG2.117 cells, intracellular HBV DNA by qPCR (Table 4), read-out: EC50)
1 | O=C(NCc1ccccc1-n1cncn1)c1c2n(c(=O)n1-c1ccc(OCC(F)(F)F)cc1)CCN(C(=O)c1ccc(Br)c(Cl)c1)C2 [Example 304, 7-(4-bromo-3-chloro-benzoyl)-3-oxo-N-[[2-(1,2,4-triazol-1-yl)phenyl]methyl]-2-[4-(2,2,2-trifluoroethoxy)phenyl]-6,8-dihydro-5H-imidazo[1,5-a]pyrazine-1-carboxamide] | < 0.1 µM | 
2 | O=C(NCc1c(F)cccc1Cl)c1c2n(c(=O)n1-c1ccc(OC3CC3)cc1)CCN(C(=O)c1ccc(Br)c(Cl)c1)C2 [Example 305, 7-(4-bromo-3-chloro-benzoyl)-N-[(2-chloro-6-fluoro-phenyl)methyl]-2-[4-(cyclopropoxy)phenyl]-3-oxo-6,8-dihydro-5H-imidazo[1,5-a]pyrazine-1-carboxamide] | 0.1 to 0.5 µM | 
3 | O=C(NCc1c(F)cccc1F)c1c2n(c(=O)n1-c1ccc(OC3CC3)cc1)CCN(C(=O)c1ccc(Br)c(Cl)c1)C2 [Example 306, 7-(4-bromo-3-chloro-benzoyl)-2-[4-(cyclopropoxy)phenyl]-N-[(2,6-difluorophenyl)methyl]-3-oxo-6,8-dihydro-5H-imidazo[1,5-a]pyrazine-1-carboxamide] | 0.1 to 0.5 µM | 
4 | N#Cc1ccc(CNC(=O)c2c3n(c(=O)n2-c2ccc(OC4CC4)cc2)CCN(C(=O)c2ccc(Br)c(Cl)c2)C3)c(F)c1 [Example 307] | 0.5 to 5 µM | 
5 | COc1ccc(-n2c(-c3ncccc3Cc3ccccc3)c3n(c2=O)CCN(C(=O)c2ccc(Br)c(Cl)c2)C3)cc1 [Example 308, 1-(3-benzyl-2-pyridyl)-7-(4-bromo-3-chloro-benzoyl)-2-(4-methoxyphenyl)-6,8-dihdyro-5H-imidazo[1,5-a]pyrazin-3-one] |  | 0.5 to 5 µM
6 | CNc1ccc(-n2c(C(=O)NCc3ccccc3)c3n(c2=O)CCN(C(=O)c2ccc(Br)c(Cl)c2)C3)cc1 [Example 311, N-benzyl-7-(4-bromo-3-chloro-benzoyl)-2-[4-(methylamino)phenyl]-3-oxo-6,8-dihydro-5H-imidazo[1,5-a]pyrazine-1-carboxamide] | 0.1 to 0.5 µM | 
7 | O=C(NCc1ccccc1)c1c2n(c(=O)n1-c1ccc(-n3ccnc3)cc1)CCN(C(=O)c1ccc(Br)c(Cl)c1)C2 [Example 312, N-benzyl-7-(4-bromo-3-chloro-benzoyl)-2-(4-imidazol-1-ylphenyl)-3-oxo-6,8-dihydro-5H-imidazo[1,5-a]pyrazine-1-carboxamide] | 0.5 to 5 µM | 
8 | N#CCOc1ccc(CNC(=O)c2c3n(c(=O)n2-c2ccc(OC4CC4)cc2)CCN(C(=O)c2ccc(Br)c(Cl)c2)C3)c(F)c1 [Example 323, 7-(4-bromo-3-chloro-benzoyl)-N-[[4-(cyanomethoxy)-2-fluoro-phenyl]methyl]-2-[4-(cyclopropoxy)phenyl]-3-oxo-6,8-dihydro-5H-imidazo[1,5-a]pyrazine-1-carboxamide] | 0.1 to 0.5 µM | 
9 | NC(=O)COc1ccc(CNC(=O)c2c3n(c(=O)n2-c2ccc(OC4CC4)cc2)CCN(C(=O)c2ccc(Br)c(Cl)c2)C3)c(F)c1 [Example 324, N-[[4-(2-amino-2-oxo-ethoxy)-2-fluoro-phenyl]methyl]-7-(4-bromo-3-chloro-benzoyl)-2-[4-(cyclopropoxy)phenyl]-3-oxo-6,8-dihydro-5H-imidazo[1,5-a]pyrazine-1-carboxamide] | 0.1 to 0.5 µM | 
10 | CC(C)Oc1ccc(-n2c(-c3ncc(Cc4ccccc4)s3)c3n(c2=O)CCN(C(=O)c2ccc(Br)c(Cl)c2)C3)cc1 [Example 325, 1-(5-benzylthiazol-2-yl)-7-(4-bromo-3-chlorobenzoyl)-2-(4-isopropoxyphenyl)-5,6,7,8-tetrahydroimidazo[1,5-a]pyrazin-3(2H)-one] | > 5 µM | 
11 | N#CCOc1ccc(CNC(=O)c2c3n(c(=O)n2-c2ccc(OCC(F)(F)F)cc2)CCN(C(=O)c2ccc(Br)c(Cl)c2)C3)c(F)c1 [Example 326, 7-(4-bromo-3-chloro-benzoyl)-N-[[4-(cyanomethoxy)-2-fluoro-phenyl]methyl]-3-oxo-2-[4-(2,2,2-trifluoroethoxy)phenyl]-6,8-dihydro-5H-imidazo[1,5-a]pyrazine-1-carboxamide] | 0.1 to 0.5 µM | 
12 | O=C(NCc1ccccc1-n1cc(F)cn1)c1c2n(c(=O)n1-c1ccc(OCC(F)(F)F)cc1)CCN(C(=O)c1ccc(Br)c(Cl)c1)C2 [Example 327, 7-(4-bromo-3-chloro-benzoyl)-N-[[2-(4-fluoropyrazol-1-yl)phenyl]methyl]-3-oxo-2-[4-(2,2,2-trifluoroethoxy)phenyl]-6,8-dihydro-5H-imidazo[1,5-a]pyrazine-1-carboxamide] | < 0.1 µM | 
13 | NC(=O)COc1ccc(CNC(=O)c2c3n(c(=O)n2-c2ccc(OCC(F)(F)F)cc2)CCN(C(=O)c2ccc(Br)c(Cl)c2)C3)c(-n2cccn2)c1 [Example 328, N-[[4-(2-amino-2-oxo-ethoxy)-2-pyrazol-1-yl-phenyl]methyl]-7-(4-bromo-3-chloro-benzoyl)-3-oxo-2-[4-(2,2,2-trifluoroethoxy)phenyl]-6,8-dihydro-5H-imidazo[1,5-a]pyrazine-1-carboxamide] | 0.5 to 5 µM | 
14 | O=C(NCc1ccc(OC2COC2)cc1F)c1c2n(c(=O)n1-c1ccc(OCC(F)(F)F)cc1)CCN(C(=O)c1ccc(Br)c(Cl)c1)C2 [Example 329, 7-(4-bromo-3-chloro-benzoyl)-N-[[2-fluoro-4-(oxetan-3-yloxy)phenyl]methyl]-3-oxo-2-[4-(2,2,2-trifluoroethoxy)phenyl]-6,8-dihydro-5H-imidazo[1,5-a]pyrazine-1-carboxamide] | 0.1 to 0.5 µM | 
15 | O=C(NCc1ccccc1)c1c2n(c(=O)n1-c1ccc(OC3CC(F)(F)C3)cc1)CCN(C(=O)c1ccc(Br)c(Cl)c1)C2 [Example 350, N-benzyl-7-(4-bromo-3-chloro-benzoyl)-2-[4-(3,3-difluorocyclobutoxy)phenyl]-3-oxo-6,8-dihydro-5H-imidazo[1,5-a]pyrazine-1-carboxamide] | 0.5 to 5 µM | 
16 | N#Cc1ccc(-n2c(C(=O)NCc3ccccc3)c3n(c2=O)CCN(C(=O)c2ccc(Br)c(Cl)c2)C3)c(Cl)c1 [Example 351, N-benzyl-7-(4-bromo-3-chloro-benzoyl)-2-(2-chloro-4-cyano-phenyl)-3-oxo-6,8-dihydro-5H-imidazo[1,5-a]pyrazine-1-carboxamide] | > 5 µM | 
17 | O=C(NCc1ccccc1)c1c2n(c(=O)n1-c1ccc3[nH]c(C(F)(F)F)cc3c1)CCN(C(=O)c1ccc(Br)c(Cl)c1)C2 [Example 352, N-benzyl-7-(4-bromo-3-chloro-benzoyl)-3-oxo-2-[2-(trifluoromethyl)-1H-indol-5-yl]-6,8-dihydro-5H-imidazo[1,5-a]pyrazine-1-carboxamide] | 0.5 to 5 µM | 
18 | O=C(NCc1ccc(OC2COC2)cc1F)c1c2n(c(=O)n1-c1ccc(OC3CC3)cc1)CCN(C(=O)c1ccc(Br)c(Cl)c1)C2 [Example 363, 7-(4-bromo-3-chloro-benzoyl)-2-[4-(cyclopropoxy)phenyl]-N-[[2-fluoro-4-(oxetan-3-yloxy)phenyl]methyl]-3-oxo-6,8-dihydro-5H-imidazo[1,5-a]pyrazine-1-carboxamide] | 0.1 to 0.5 µM | 
19 | Cn1ncc2cc(-n3c(C(=O)NCc4ccccc4)c4n(c3=O)CCN(C(=O)c3ccc(Br)c(Cl)c3)C4)ccc21 [Example 364, N-benzyl-7-(4-bromo-3-chloro-benzoyl)-2-(1-methylindazol-5-yl)-3-oxo-6,8-dihydro-5H-imidazo[1,5-a]pyrazine-1-carboxamide] | 0.1 to 0.5 µM | 
20 | CC(C)(Oc1ccc(CNC(=O)c2c3n(c(=O)n2-c2ccc(OC4CC4)cc2)CCN(C(=O)c2ccc(Br)c(Cl)c2)C3)c(F)c1)C(N)=O [Example 365, N-[[4-(2-amino-1,1-dimethyl-2-oxo-ethoxy)-2-fluoro-phenyl]methyl]-7-(4-bromo-3-chloro-benzoyl)-2-[4-(cyclopropoxy)phenyl]-3-oxo-6,8-dihydro-5H-imidazo[1,5-a]pyrazine-1-carboxamide] | < 0.1 µM | 
21 | O=C(NCc1ccccc1-c1ncco1)c1c2n(c(=O)n1-c1ccc(OC3CC3)cc1)CCN(C(=O)c1ccc(Br)c(Cl)c1)C2 [Example 366, 7-(4-bromo-3-chloro-benzoyl)-2-[4-(cyclopropoxy)phenyl]-N-[(2-oxazol-2-ylphenyl)methyl]-3-oxo-6,8-dihydro-5H-imidazo[1,5-a]pyrazine-1-carboxamide] | < 0.1 µM | 
22 | O=C(NCc1cccc2[nH]cnc12)c1c2n(c(=O)n1-c1ccc(OC3CC3)cc1)CCN(C(=O)c1ccc(Br)c(Cl)c1)C2 [Example 367, N-(1H-benzoimidazol-4-ylmethyl)-7-(4-bromo-3-chloro-benzoyl)-2-[4-(cyclopropoxy)phenyl]-3-oxo-6,8-dihydro-5H-imidazo[1,5-a]pyrazine-1-carboxamide] | 0.1 to 0.5 µM | 
23 | O=C(NCc1cccc2[nH]cnc12)c1c2n(c(=O)n1-c1ccc(OCC(F)(F)F)cc1)CCN(C(=O)c1ccc(Br)c(Cl)c1)C2 [Example 368, N-(1H-benzimidazol-4-ylmethyl)-7-(4-bromo-3-chloro-benzoyl)-3-oxo-2-[4-(2,2,2-trifluoroethoxy)phenyl]-6,8-dihydro-5H-imidazo[1,5-a]pyrazine-1-carboxamide] | 0.5 to 5 µM | 
24 | O=C(NCc1ccccc1-c1ccccn1)c1c2n(c(=O)n1-c1ccc(OC3CC3)cc1)CCN(C(=O)c1ccc(Br)c(Cl)c1)C2 [Example 369, 7-(4-bromo-3-chloro-benozyl)-2-[4-(cyclopropoxy)phenyl]-3-oxo-N-[[2-(2-pyridyl)phenyl]methyl]-6,8-dihydro-5H-imidazo[1,5-a]pyrazine-1-carboxamide] | < 0.1 µM | 
25 | O=C(NCc1ccccc1-c1ccccn1)c1c2n(c(=O)n1-c1ccc(OCC(F)(F)F)cc1)CCN(C(=O)c1ccc(Br)c(Cl)c1)C2 [Example 370, 7-(4-bromo-3-chloro-benzoyl)-3-oxo-N-[[2-(2-pyridyl)phenyl]methyl]-2-[4-(2,2,2-trifluoroethoxy)phenyl]-6,8-dihydro-5H-imidazo[1,5-a]pyrazine-1-carboxamide] | < 0.1 µM | 
